Assay results taken from article PMC8703317, “2-(Piperidin-4-yl)acetamides as Potent Inhibitors of Soluble Epoxide Hydrolase with Anti-Inflammatory Activity” (Pharmaceuticals, 2021).

Tests used:
[1] = target: T1, human sEH (Homo sapiens, UniProt P34913); test: fluorescent-based sEH inhibition assay, recombinant human sEH; format: biochemical; details: baculovirus expressed recombinant human sEH, average of three replicates
T1 construct: made in house; host or cells: baculovirus expression system (insect cells implied)
T1 sequence (P34913 1-555): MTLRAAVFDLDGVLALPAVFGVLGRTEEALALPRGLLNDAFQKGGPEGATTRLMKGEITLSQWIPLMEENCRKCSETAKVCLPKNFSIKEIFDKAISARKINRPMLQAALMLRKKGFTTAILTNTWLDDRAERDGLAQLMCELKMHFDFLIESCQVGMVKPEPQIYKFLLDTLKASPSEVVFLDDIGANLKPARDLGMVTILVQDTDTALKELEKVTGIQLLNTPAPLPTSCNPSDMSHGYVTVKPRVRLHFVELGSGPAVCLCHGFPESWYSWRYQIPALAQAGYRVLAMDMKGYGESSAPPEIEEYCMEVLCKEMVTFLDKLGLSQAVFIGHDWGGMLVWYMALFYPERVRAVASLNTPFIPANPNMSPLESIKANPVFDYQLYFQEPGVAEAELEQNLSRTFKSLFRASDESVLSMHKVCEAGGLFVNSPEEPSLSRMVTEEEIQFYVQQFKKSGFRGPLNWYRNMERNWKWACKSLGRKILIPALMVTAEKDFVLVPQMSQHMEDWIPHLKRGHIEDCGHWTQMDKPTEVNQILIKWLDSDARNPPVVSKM
Experimental: (§1) The potency of all the new compounds as inhibitors of the human and murine sEH was tested using a previously reported sensitive fluorescent-based assay using baculovirus expressed recombinant human and mouse sEH [28].

[2] = microsomal stability, mouse microsomes; format: in vitro ADME; details: pooled murine microsomes, pH 7.4; 60 min incubation with mouse microsomes, NADPH, 37 °C
Experimental: (§2) The human and murine pooled microsomes employed were purchased from Tebu-Xenotech (Barcelona, Spain). The compound was incubated at 37 °C with the microsomes in a 50 mM phosphate buffer (pH = 7.4) containing 3 mM MgCl2, 1 mM NADP, 10 mM glucose-6-phosphate and 1 U/mL glucose-6-phosphate-dehydrogenase. Samples (75 µL) were taken from each well at 0, 10, 20, 40 and 60 min and transferred to a plate containing 4 °C 75 µL acetonitrile and 30 µL of 0.5% formic acid in water were added for improving the chromatographic conditions. The plate was centrifuged (46000 g, 30 min) and supernatants were taken and analyzed in a UPLC-MS/MS (Xevo-TQD, Waters) by employing a BEH C18 column and an isocratic gradient of 0.1% formic acid in water: 0.1% formic acid acetonitrile (60:40). The metabolic stability of the compounds was calculated from the logarithm of the remaining compounds at each of the time points studied.

[3] = target: T2, murine sEH (Mus musculus, UniProt P34914); test: fluorescent-based sEH inhibition assay, recombinant mouse sEH; format: biochemical; details: baculovirus expressed recombinant mouse sEH, average of three replicates
T2 construct: made in house; host or cells: baculovirus expression system (insect cells implied)
T2 sequence (P34914 1-554): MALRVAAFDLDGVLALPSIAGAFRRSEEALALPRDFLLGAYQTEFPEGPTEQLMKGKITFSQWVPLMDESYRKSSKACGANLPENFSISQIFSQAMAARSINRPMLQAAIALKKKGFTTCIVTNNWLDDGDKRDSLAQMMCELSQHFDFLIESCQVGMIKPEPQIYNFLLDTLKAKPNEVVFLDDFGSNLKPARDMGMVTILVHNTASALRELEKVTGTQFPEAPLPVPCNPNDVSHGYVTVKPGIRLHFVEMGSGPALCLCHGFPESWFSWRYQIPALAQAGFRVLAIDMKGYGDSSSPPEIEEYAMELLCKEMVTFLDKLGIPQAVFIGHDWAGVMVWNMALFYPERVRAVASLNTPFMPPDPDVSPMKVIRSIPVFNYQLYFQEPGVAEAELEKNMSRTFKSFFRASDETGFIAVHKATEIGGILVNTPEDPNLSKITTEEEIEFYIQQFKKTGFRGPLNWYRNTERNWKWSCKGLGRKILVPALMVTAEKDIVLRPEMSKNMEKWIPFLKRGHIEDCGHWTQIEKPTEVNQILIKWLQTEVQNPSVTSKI
Experimental: as §1

[4] = microsomal stability, human microsomes; format: in vitro ADME; details: pooled human microsomes, pH 7.4; 60 min incubation with human microsomes, NADPH, 37 °C
Experimental: as §2

[5] = tested on: microglial BV2 cells activated with LPS; test: nitric oxide generation (nitrite, Griess) in LPS-activated BV2 microglial cells; format: cell-based; details: 24 h; for nitric oxide generation (nitrite levels) in presence of LPS: LPS 0.1 or 1 μg/mL
Experimental: Inflammatory changes were determined by the measure of nitric oxide generation, as the endpoint of iNOS activation, in microglial BV2 cells. BV2 cells (HyperCLDB, Banca Biologica e Cell Factory, ICLC ATL 03001) were grown in RPMI 1640 medium, supplemented with L-glutamine 2 mM, gentamycin 50 µM and 10% FBS. For experiments, cells were seeded in 96-well plates at 2 × 10^5 cells/mL, 100 µL/well. […] After 1 h of incubation, the cells were treated with the pro-inflammatory chemical LPS (0.1 μg/mL or 1 μg/mL; strain E. coli […], Sigma-Aldrich, L-2654, batch #120M4028) and further incubated for 24 h. TPPU at 100 µM was also assayed as a reference anti-inflammatory compound. DMSO 0.1% was used as vehicle. Cells were maintained at 37 °C in a humidified incubator with 5% CO2 throughout the procedures. Nitric oxide released to the culture medium was measured by the colorimetric Griess reaction that detects nitrite (NO2^–), a stable reaction product of nitric oxide and molecular oxygen. Briefly, 50 µL of conditioned medium were incubated with 50 µL of Griess reagent for 10 min at room temperature. Optical density was measured at 540 nm. Nitrite concentration was determined from a sodium nitrite standard curve. Results were normalized by cell protein content in the well and expressed as a percentage of the average maximal values given by the pro-inflammatory agent (LPS 1 µg/mL). Each treatment was performed in 3–5 wells and the whole experiment was repeated 3–4 times in cultures of different cell passage. Data were analyzed by ANOVA followed by Tukey’s multiple comparisons test.

[6] = tested on: SH-SY5Y neuroblastoma cells; test: cytotoxicity by propidium iodide staining in SH-SY5Y cells; format: cell-based; details: 24 h incubation, up to 100 µM (highest concentration tested), vehicle DMSO 0.1%, n = 10–12
Experimental: Cytotoxicity was evaluated in the human neuroblastoma SH-SY5Y cell line (ATCC Number: CRL-2266). Cells were cultured in minimum essential medium/HAM’s-F12 (1:1, v/v) medium, supplemented with non-essential amino acids, L-glutamine 1 mM, gentamycin 50 µM and 10% heat inactivated fetal bovine serum (FBS). For experiments, the cells were seeded at 3 × 10^5 cells/mL (100 µL/well) in 96-well plates. […] DMSO 0.1% was used as vehicle. Treated cultures were returned to the incubator for a 24 h test exposure. One hour before termination, cell death was measured by PI staining. Briefly, PI (Molecular Probes) at the final concentration of 7.5 µg/mL was added to the cells and incubated for 1 h. PI enters into cells with damaged membrane and binds to DNA yielding intense red fluorescence. Fluorescence was measured in a SAFAS FLX-Xenius microplate reader (Monaco) at 530 nm excitation and 645 nm emission. Percentage of cell death for a given fluorescence value (Ft) was calculated according to the values given by Triton X100 killed cells (Fmax; 100% cell death) and vehicle treated cells (Fmin; 0% cell death) [% = ((Ft-Fmin)/(Fmax-Fmin)) × 100]. Each treatment was assayed in 3–4 wells per experiment and the experiment was repeated 3 times in cultures of different cell passages. Data were analyzed by ANOVA.

[7] = parameters: method as in PMID 33945278; details: 60 min incubation with human microsomes, NADPH, 37 °C; cited from earlier work
[8] = parameters: method as in PMID 33945278; details: cited from earlier work; for Microsomal Stability Mouse % Remaining at 1 h: 60 min incubation with mouse microsomes, NADPH, 37 °C

SMILES: N#Cc1ccc(N2CCC(CC(=O)NC34CC5CC(F)(CC(C3)c3ccccc35)C4)CC2)cc1 [10b, 2-(1-(4-Cyanophenyl)piperidin-4-yl)-N-(9-fluoro-5,6,8,9,10,11-hexahydro-7H-5,9:7,11-dimethanobenzo[9]annulen-7-yl)acetamide]
- IC50 [1]: 3400 pM
- remaining at 1 h [2]: 0.1%
- IC50 [3]: 400 pM
- melting point: 180 to 181 °C
- remaining at 1 h [4]: 0%

SMILES: O=C(CC1CCN(c2ccc(C(=O)O)cc2)CC1)NC12CC3CC(F)(CC(C1)c1ccccc13)C2 [10c, 4-(4-(2-((9-Fluoro-5,6,8,9,10,11-hexahydro-7H-5,9:7,11-dimethanobenzo[9]annulen-7-yl)amino)-2-oxoethyl)piperidin-1-yl)benzoic Acid]
- remaining at 1 h [2]: 29%
- nitric oxide generation (nitrite levels) in presence of LPS ([5]; compound at 50 µM): indistinguishable from control levels
- nitric oxide generation (nitrite levels) in presence of LPS ([5]; compound at 100 µM): indistinguishable from control levels
- IC50 [3]: 700 pM
- cytotoxicity, percentage of cell death (PI staining) [6]: no cytotoxicity
- remaining at 1 h [4]: 60%

SMILES: O=C(CC1CCN(c2ccc(C(=O)O)cc2C2CC2)CC1)NC12CC3CC(F)(CC(C1)c1ccccc13)C2 [10d, 3-Cyclopropyl-4-(4-(2-((9-fluoro-5,6,8,9,10,11-hexahydro-7H-5,9:7,11-dimethanobenzo[9]annulen-7-yl)amino)-2-oxoethyl)piperidin-1-yl)benzoic Acid]
- IC50 [1]: 400 pM
- remaining at 1 h [2]: 2%
- IC50 [3]: 200 pM
- melting point: 190 to 191 °C
- remaining at 1 h [4]: 11%

SMILES: CC12CC3CC(NC(=O)N[C@H]4CC[C@H](Oc5ccc(C(=O)O)cc5)CC4)(CC(C1)c1ccccc13)C2 [11a]
- Microsomal Stability Human % Remaining at 1 h [7]: 70%
- Microsomal Stability Mouse % Remaining at 1 h [8]: 10%

SMILES: O=C(NC12CC3CC(F)(CC(C1)c1ccccc13)C2)N[C@H]1CC[C@H](Oc2ccc(C(=O)O)cc2)CC1 [11b]
- Microsomal Stability Human % Remaining at 1 h [7]: 77%
- Microsomal Stability Mouse % Remaining at 1 h [8]: 36%

SMILES: O=C(NC12CC3CC(Cl)(CC(C1)c1ccccc13)C2)N[C@H]1CC[C@H](Oc2ccc(C(=O)O)cc2)CC1 [11c]
- Microsomal Stability Human % Remaining at 1 h [7]: 89%
- Microsomal Stability Mouse % Remaining at 1 h [8]: 60%

SMILES: CCC(=O)N1CCC(NC(=O)Nc2ccc(OC(F)(F)F)cc2)CC1 [TPPU, reference compound]
- nitric oxide release induced by LPS, reduced to ([5]; compound at 100 µM, LPS, percentage of LPS value): approximately 50%

SMILES: CC(=O)N1CCC(NC(=O)NC23CC4CC(C)(CC(C2)c2ccccc24)C3)CC1 [compound 1, reference compound]
- remaining at 1 h [2]: 1%
- remaining at 1 h [4]: 1%
- microsomal stability (% remaining at 1 h) mouse ([8]; Figure 2 legend): 0.5%
